Relative viability data for four cell lines are collected here from the supplement of paper PMC10307832.

Common to all, as to assay: relative viability (nuclei count vs DMSO), 5 days (fraction); higher = more cells survive
Compound in the assay “CX-5461 + Palbociclib”: Cc1cnc(CNC(=O)c2c(=O)c3ccc(N4CCCN(C)CC4)nc3n3c2sc2ccccc23)cn1 [CX-5461] + CC(=O)c1c(C)c2cnc(Nc3ccc(N4CCNCC4)cn3)nc2n(C2CCCC2)c1=O [Palbociclib] (partner 0.5 µM)
A digest of the protocol: (§1)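 The day after seeding in 1536-well plates, lung cancer cell lines were treated by pin tool with a single drug, or with a fixed anchor-drug dose together with five library-drug doses (not always all listed) in √10 steps. After 5 days, a combined fix-and-stain solution (final 0.05% Triton X-100, 1% formaldehyde, 1 ug/ml Hoechst) was added. Nuclei counted on 4× images gave relative viability as treated counts over vehicle counts, reported as the median of duplicate plates.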

Compound in the assay “IMD-0354 + Palbociclib”: O=C(Nc1cc(C(F)(F)F)cc(C(F)(F)F)c1)c1cc(Cl)ccc1O [IMD-0354] + CC(=O)c1c(C)c2cnc(Nc3ccc(N4CCNCC4)cn3)nc2n(C2CCCC2)c1=O [Palbociclib] (partner 0.5 µM)
A digest of the protocol:
as §1

Compound in the assay “IMD-0354 + Pictilisib”: O=C(Nc1cc(C(F)(F)F)cc(C(F)(F)F)c1)c1cc(Cl)ccc1O [IMD-0354] + CS(=O)(=O)N1CCN(Cc2cc3nc(-c4cccc5[nH]ncc45)nc(N4CCOCC4)c3s2)CC1 [Pictilisib] (partner 1 µM)
A digest of the protocol: as §1

Compound in the assay “IMD-0354 + Olaparib”: O=C(Nc1cc(C(F)(F)F)cc(C(F)(F)F)c1)c1cc(Cl)ccc1O [IMD-0354] + O=C(c1cc(Cc2n[nH]c(=O)c3ccccc23)ccc1F)N1CCN(C(=O)C2CC2)CC1 [Olaparib] (partner 8 µM)
A digest of the protocol: as §1

In the case of RERF-LC-KJ, the relative viability worked out at 1.03 in the assay with CX-5461 + Palbociclib (first compound 0.01 µM); 1.16 with CX-5461 + Palbociclib (first compound 0.03162 µM); 0.713 in the assay with CX-5461 + Palbociclib (first compound 0.1 µM); 0.956 with CX-5461 + Palbociclib (first compound 0.3162 µM); 0.742 in the assay with CX-5461 + Palbociclib (first compound 1 µM); 1.29 in the assay with IMD-0354 + Palbociclib (first compound 0.04 µM). The relative viability turned out to be 1.1 in the assay with IMD-0354 + Palbociclib (first compound 0.1265 µM); 0.776 in the assay with IMD-0354 + Palbociclib (first compound 0.4 µM); 0.642 in the assay with IMD-0354 + Palbociclib (first compound 1.265 µM); 0.19 in the assay with IMD-0354 + Palbociclib (first compound 4 µM); 0.518 in the assay with IMD-0354 + Pictilisib (first compound 0.04 µM); 0.595 in the assay with IMD-0354 + Pictilisib (first compound 0.1265 µM). The relative viability was found to be 0.542 with IMD-0354 + Pictilisib (first compound 0.4 µM); 0.233 with IMD-0354 + Pictilisib (first compound 1.265 µM); 0.226 with IMD-0354 + Pictilisib (first compound 4 µM); 1.08 with IMD-0354 + Olaparib (first compound 0.04 µM); 0.969 in the assay with IMD-0354 + Olaparib (first compound 0.1265 µM); 0.415 with IMD-0354 + Olaparib (first compound 0.4 µM). Besides, the figures for the relative viability in the assay with IMD-0354 + Olaparib (first compound 1.265 µM) and in the assay with IMD-0354 + Olaparib (first compound 4 µM) were 0.169 and 0.229, respectively.
On to SK-LU-1, for which the relative viability in the assay with CX-5461 + Palbociclib (first compound 0.01 µM) was found to be 0.412; with CX-5461 + Palbociclib (first compound 0.03162 µM), 0.407; in the assay with CX-5461 + Palbociclib (first compound 0.1 µM), 0.376; in the assay with CX-5461 + Palbociclib (first compound 0.3162 µM), 0.388; with CX-5461 + Palbociclib (first compound 1 µM) it was 0.358; with IMD-0354 + Palbociclib (first compound 0.04 µM), 0.398. Besides, the relative viability with IMD-0354 + Palbociclib (first compound 0.1265 µM) stood at 0.394; with IMD-0354 + Palbociclib (first compound 0.4 µM), 0.319; in the assay with IMD-0354 + Palbociclib (first compound 1.265 µM), 0.239; in the assay with IMD-0354 + Palbociclib (first compound 4 µM), 0.296; in the assay with IMD-0354 + Pictilisib (first compound 0.04 µM), 0.681; with IMD-0354 + Pictilisib (first compound 0.1265 µM) it was 0.583. Besides, the relative viability with IMD-0354 + Pictilisib (first compound 0.4 µM) was 0.379; with IMD-0354 + Pictilisib (first compound 1.265 µM), 0.33; with IMD-0354 + Pictilisib (first compound 4 µM) it was 0.233; in the assay with IMD-0354 + Olaparib (first compound 0.04 µM), 0.481; with IMD-0354 + Olaparib (first compound 0.1265 µM), 0.395; in the assay with IMD-0354 + Olaparib (first compound 0.4 µM), 0.325. The figures for the relative viability in the assay with IMD-0354 + Olaparib (first compound 1.265 µM) and with IMD-0354 + Olaparib (first compound 4 µM) were 0.265 and 0.205, respectively.
Turning to SK-MES-1, the relative viability was found to be 0.299 with CX-5461 + Palbociclib (first compound 0.01 µM); 0.308 in the assay with CX-5461 + Palbociclib (first compound 0.03162 µM); 0.281 with CX-5461 + Palbociclib (first compound 0.1 µM); 0.342 with CX-5461 + Palbociclib (first compound 0.3162 µM); 0.249 in the assay with CX-5461 + Palbociclib (first compound 1 µM); 0.337 with IMD-0354 + Palbociclib (first compound 0.04 µM). The relative viability amounted to 0.286 with IMD-0354 + Palbociclib (first compound 0.1265 µM); 0.317 with IMD-0354 + Palbociclib (first compound 0.4 µM); 0.232 with IMD-0354 + Palbociclib (first compound 1.265 µM); 0.221 in the assay with IMD-0354 + Palbociclib (first compound 4 µM); 0.353 in the assay with IMD-0354 + Pictilisib (first compound 0.04 µM); 0.363 in the assay with IMD-0354 + Pictilisib (first compound 0.1265 µM). For the same cell line, the relative viability with IMD-0354 + Pictilisib (first compound 0.4 µM) was found to be 0.335; with IMD-0354 + Pictilisib (first compound 1.265 µM), 0.261; with IMD-0354 + Pictilisib (first compound 4 µM) it was 0.226; with IMD-0354 + Olaparib (first compound 0.04 µM), 0.894; with IMD-0354 + Olaparib (first compound 0.1265 µM), 0.643; with IMD-0354 + Olaparib (first compound 0.4 µM), 0.312. In addition, the relative viability in the assay with IMD-0354 + Olaparib (first compound 1.265 µM) worked out at 0.19; with IMD-0354 + Olaparib (first compound 4 µM) it was 0.226.
With SW 1573, the relative viability with CX-5461 + Palbociclib (first compound 0.01 µM) is 0.343; with CX-5461 + Palbociclib (first compound 0.03162 µM), 0.388; with CX-5461 + Palbociclib (first compound 0.1 µM), 0.125; with CX-5461 + Palbociclib (first compound 0.3162 µM), 0.371; with CX-5461 + Palbociclib (first compound 1 µM), 0.109; in the assay with IMD-0354 + Palbociclib (first compound 0.04 µM) it was 0.533. Also, the relative viability with IMD-0354 + Palbociclib (first compound 0.1265 µM) was 0.315; in the assay with IMD-0354 + Palbociclib (first compound 0.4 µM), 0.237; in the assay with IMD-0354 + Palbociclib (first compound 1.265 µM), 0.147; with IMD-0354 + Palbociclib (first compound 4 µM), 0.121; in the assay with IMD-0354 + Pictilisib (first compound 0.04 µM) it was 0.577; with IMD-0354 + Pictilisib (first compound 0.1265 µM) it was 0.468. Further, the relative viability with IMD-0354 + Pictilisib (first compound 0.4 µM) worked out at 0.263; in the assay with IMD-0354 + Pictilisib (first compound 1.265 µM), 0.418; with IMD-0354 + Pictilisib (first compound 4 µM) it was 0.137; in the assay with IMD-0354 + Olaparib (first compound 0.04 µM), 0.537; with IMD-0354 + Olaparib (first compound 0.1265 µM) it was 0.467; with IMD-0354 + Olaparib (first compound 0.4 µM) it was 0.264. Also, the relative viability with IMD-0354 + Olaparib (first compound 1.265 µM) worked out at 0.0858; in the assay with IMD-0354 + Olaparib (first compound 4 µM), 0.0862.
